The record followed here is US6083941A, “Inhibition of NMDA receptor activity by pregnenolone sulfate derivatives” (Trustees of Boston University, priority 1998, dated 2000).

Values after ≈ are worked out from the molar mass of the structure shown.

The nature of data set [1]: Maximal solubility in the external buffer. The data set is classed as physicochemical. As to conditions: pH 7.2, aqueous buffer, 0.5% dimethyl sulfoxide.
In a further data set the test system is NMDA receptor. Description: Whole cell patch clamp, NMDA-induced current in cultured chick spinal cord neurons. The data set is classed as cell-based. The procedure:
Cultures of dissociated spinal cord neurons were prepared as previously described (Farb, D. H., et al., J. Cell Biol., 80:651-661 (1979)). Briefly, the dissociated cells from 7-day chick embryos were plated on collagen-coated 35-mm tissue culture dishes in Eagle's minimum essential medium supplemented with 2.4 mM glutamine, 10% (v/v) heat-inactivated horse serum, 5% (v/v) chick embryo extract and antibiotics. Cultures were maintained in a humidified atmosphere of 5% CO2, 95% air at 37°. Cytarabine (1 μM) was added to the culture medium after 36 hr. of the initial plating to inhibit the proliferation of non-neuronal cells. One day later, this medium was replaced with a similar medium supplemented with 20.5 mM glucose, 19 mM KCl, and 2.5% chick embryo extract. Fresh medium was added twice weekly. Cultured neurons were used in experiments within 2-4 weeks after plating.
Experiments were carried out in 35-mm tissue culture dishes on the stage of an inverted phase contrast microscope. Whole cell currents were recorded by the whole cell variant of the patch clamp technique (Hamill, O. P., et al., Pfagers Arch. 891:85-100 (1981)). Patch electrodes had tip openings of about […] and resistances of 3-8 M.OMEGA. using an intracellular solution comprised of the following (in mM): 140 CsCl, 11 EGTA, and 10 HEPES (pH adjusted to 7.2 with CsOH). In experiments in which a high concentration of glycine was used, the intracellular solution was replaced with a low chloride (10 mM) pipette solution. This solution contained the following (in mM): 140 potassium gluconate, 10 KCl, 8 sodium gluconate, 11 EGTA, and 10 HEPES (pH adjusted to 7.2 with KOH). To prevent a marked run-down of NMDA-induced current at high NMDA concentrations, 4 mM potassium ATP was included in the intracellular solution. The bath solution contained the following (in mM): 150 NaCl, 4 KCl, 1 CaCl2, and 10 HEPES (pH adjusted to 7.2 with NaOH). No glycine was added to the solutions containing NMDA, because no additional glycine was required to obtain a robust NMDA response, and there was no effect of a maximal concentration (10 μM) of glycine on 5β3αS inhibition of the NMDA response. All experiments were performed at room temperature (23-25° C.).
Recordings were made using an Axopatch 1B patch clamp apparatus (Axon Instruments, Burlingame, Calif.). Cells with series resistances greater than 10 M.OMEGA. were rejected. After partial compensation, series resistances were between 3.5 and 6 M.OMEGA.. The holding potential was maintained at -70 mV unless otherwise noted. Currents were filtered at 1 kHz using an eight-pole Bessel filter (-3 dB) and digitized ([…]) using an on-line data acquisition system (pClamp, Axon Instruments).
Drug solutions were applied to single neurons by pressure ejection (15 psi) from seven-barrel pipettes. Seven-barrel pressure pipettes were positioned approximately […] from the neuronal soma. Under these conditions, the drug solution in the pressure pipette rapidly and effectively replaces the solution surrounding the target neurons with less than 10% dilution (Choi, D. W., et al., Nature (Lond.) 269:342-344 (1977); Chan, C. Y., et al., Life Sci., 83:2061-2069 (1983); Chan, C. Y. and Farb, D. H., J. Neurosci., 5:2365-2373 (1985)). All drugs were obtained from Sigma, with the except of AMPA hydrobromide (Research Biochemicals) and steroids (Steraloids). Stock solutions of steroids were prepared in dimethyl sulfoxide, the final concentration of which was 0.5% (v/v). To obviate the possible effects of dimethyl sulfoxide on the relevant agonist-induced currents, all other drug solutions including NMDA, kainate, AMPA and external buffer (in the pressure pipette) also contained 0.5% dimethyl sulfoxide. […]

Usually solubility stands for the concentration that dissolves in the medium under given conditions. In data set [1], `CC(=O)[C@H]1CC[C@H]2[C@@H]3CC[C@@H]4C[C@H](O)CC[C@]4(C)[C@H]3CC[C@]12C` [5β3α, reference compound] had a solubility of 50 µM (≈ 15.9 µg/mL). Moreover, the “potentiation of the 30 μM NMDA-induced current” value in the data set on NMDA receptor (50 μM nonsulfated steroid) was found to be 3.6±8.4%. In addition, in the data set with NMDA receptor (60 μM nonsulfated steroid), the “effect on the NMDA response” value is given as “does not produce any significant effect”.
